Measured values reported in ChEMBL document CHEMBL3102823, “Tetramic acid analogues produced by coculture of Saccharopolyspora erythraea with Fusarium pallidoroseum” (2014).
Active and inactive are the calls of the source. No cut-off for these calls is given here.

Legend:
Staphylococcus aureus = experiment: Antibacterial activity against Staphylococcus aureus by Kirby-Bauer disk diffusion assay; format: functional
[1] = (§1) Cytotoxicity against human NCI60 cells assessed as growth inhibition by SRB assay; format: functional
[2] = test system: Saccharopolyspora erythraea; experiment: Antibacterial activity against Saccharopolyspora erythraea by Kirby-Bauer disk diffusion assay
NCI60 = experiment: as §1; format: functional
CCRF-CEM = experiment: Cytotoxicity against human CCRF-CEM cells assessed as growth inhibition by SRB assay; format: functional

## C/C=C/[C@@H]1C=C[C@@H]2C[C@@](C)(O)CC[C@H]2[C@]1(C)C(=O)C1=C(O)[C@H](CO)N(C)C1=O
Staphylococcus aureus
  %max: inactive
[1]
  GI50: > 20 µM
[2]
  Activity: inactive

## C/C=C/[C@@H]1C=C[C@@H]2C[C@H](CO)CC[C@H]2[C@]1(C)C(=O)C1=C(O)[C@H](CO)NC1=O
Staphylococcus aureus
  Activity: inactive
[1]
  GI50: > 20 µM
[2]
  Activity: inactive

## C/C=C/[C@@H]1C=C[C@@H]2C[C@H](C)CC[C@H]2[C@]1(C)/C(O)=C1/C(=O)[C@H](CO)N(C)C1=O
Staphylococcus aureus
  MIC: <1.25 µg
NCI60
  growth inhibition (GI): Active
CCRF-CEM
  GI50: 0.144 µM
[2]
  MIC: 2.5 µg

## C/C=C/C1C=C[C@@H]2C[C@H](CO)CC[C@H]2[C@]1(C)C(=O)C1=C(O)[C@H](CO)N(C)C1=O (some centres undefined)
[1]
  GI50: > 20 µM

## CN1C(=O)C(C(=O)[C@@]2(C)[C@@H]3CC[C@@H](CO)C[C@H]3C=C[C@H]2/C=C/CO)=C(O)C1CO (mixture of isomers)
Staphylococcus aureus
  Activity: inactive
[1]
  GI50: > 20 µM
[2]
  Activity: inactive
